Results taken from patent publication US7713960B2, “Inhibition of the Raf/Mek/P-Erk pathway for treating cancer” (University of South Florida, priority 2005, dated 2010).
Structures can show the parent of a compound that is named as a salt.

Tests used:
ACHN cells = assay: Apoptosis assay (Cell Death Detection ELISA), ACHN; assay type: cell-based, human; conditions: 48 hours
Procedure: Apoptosis Assay—Apoptosis was analyzed using the Cell Death Detection ELISA (Roche, Indianapolis, Ind.) measuring cytoplasmic histone-associated mono- and oligonucleosome DNA fragments. Procedures were carried out according to the manufacturers protocol. Briefly, 1×10^5 cells were plated in 60 mm dishes and treated with various doses of ARA-211 or vehicle for 48 hours. Cells were lysed with the provided lysis buffer and lysate was incubated on the ELISA plate for 1 hour to capture the histone associated DNA indicative of apoptotic cells. Anti-DNA peroxidase conjugated antibody was added to detect the cleaved DNA and the microplate was washed and developed with ABTS substrate which was quantitated by microplate reader at 405 nm.

c-Raf-1 = assay: In vivo kinase assay, intact MDA-MB-231 cells treated, c-Raf-1; assay type: cell-based, human; conditions: 10 μM
Procedure: (§1) In Vitro Kinase Assays—MDA-MB-231 cells (2×10^6) were lysed for 30 minutes at 4° C. in RIPA-150 buffer (10 mM Tris pH 7.5, 150 mM NaCl, 10% glycerol, 5 mM EDTA, 1% Triton X-100, 0.1% SDS, 100 μM sodium orthovanadate, 1 μM aprotinin, 10 μM leupeptin, 10 μM antipain). Cell debris was pelleted at 13000 rpm for 15 minutes at 4° C. and the lysate was rocked overnight with 10 μg of either c-Raf or MEK antibodies (Santa Cruz Biotechnologies, Santa Cruz, Calif.). 25 μl of protein A/G PLUS agarose (Santa Cruz Biotechnology) was then added and rocked for 4 hours at 4° C. Samples were spun at 2000 rpm for 5 minutes to collect the agarose beads, which were then washed four times with lysis buffer. On the final wash each pellet was divided into 5. […]

HCT-116 cells = assay: Anchorage-independent growth (soft agar assay), HCT-116; assay type: cell-based, human
Procedure: (§2) Soft Agar Assay—Anchorage independent growth assays were performed as previously described (Lerner et al., 1997). Briefly, agar was diluted to 0.3% in propagation media containing 20,000 cells and either vehicle or ARA-211 and 1 ml of cell/agar mixture plated on top of 2 ml of a 0.6% layer of agar in medium alone. Cells were grown for three to four weeks at 37° C., 10% Co2 and were fed weekly with 100 μl per well of media/treatment. Quantification of colonies was done using a GS-700 scanning densitometer.

MDA-MB-231 cells [1] = assay: Anchorage-independent growth (soft agar assay), MDA-MB-231; assay type: cell-based, human
Procedure: as §2

MDA-MB-231 cells [2] = assay: Nude mouse xenograft model, MDA-MB-231 (mammary fat pads); assay type: in vivo, nude mice; conditions: MDA-MB-231 xenograft; i.p. 200 mpk/day
From the text: Anti-tumor activity in nude mouse xenograft model—Female athymic nude (nu/nu) mice, 5-6 weeks old, were purchased from Charles River (Wilmington, Mass.) and allowed to acclimate in the animal facility for one week. After harvesting, A-549, SNB-19, ACHN, and HCT-116 cells were, resuspended in sterile PBS, and injected s.c. into the right and left flanks (10×10^6 cells per flank) of the mice as previously described (Sun et al., 2005). For MDA-MB-231, cells were harvested and resuspended in PBS (10×10^6 cells per 50 μl) and an equal volume of Matrigel (BD Biosciences, San Jose, Calif.). 100 μl of MDA-MB-231 cells in PBS/Matrigel were injected s.c. into the mammary fat pads between the 2nd and 3rd nipples on each side of the mice. Once the tumors reached approximately 200-300 mm^3 the mice were randomized and treated i.p. with 0.1 ml vehicle (PBS) or ARA-211. Each treatment group consisted of five mice (2 tumors per mouse, a total of 10 tumors). The tumor volumes were determined by measuring the length (l) and width (w) and calculating the volume (V=w^2l/2). Statistical significance between the control and treated animals was determined using a student's t test.

SF-539 cells = assay: Anchorage-dependent growth (MTT assay), SF-539; assay type: cell-based, human
Procedure: MTT Assay—2000 cells per well were plated into 96 well tissue culture plates, and the cells were allowed to attach overnight at 37° C. with 10% CO2. Cells were then treated with increasing concentrations of ARA-211, or vehicle (DMSO) and incubated for four days. At that time treatment medium was removed and replaced with 100 μl of lmg/ml MTT (Sigma-Aldrich, St. Louis, Mo.) in media and incubated at 37° C., 10% CO2 for 3 hours. After 3 hours the MTT media was removed and replaced with 100 μl/well of DMSO, rocked at room temperature for 5 minutes, then absorbance read at 540 nm on a micro-plate reader.

Mek-1 = assay: In vivo kinase assay, intact MDA-MB-231 cells treated, Mek-1; assay type: cell-based, human; conditions: 10 μM
Procedure: as §1

SNB-19 cells = assay: Anchorage-independent growth (soft agar assay), SNB-19; assay type: cell-based, human
Procedure: as §2

CC(C)(C)NCC(O)c1ccc(O)c(CO)n1 (centres unmarked) [ARA-211, 2-hydroxymethyl-3-hydroxy-6-(1-hydroxy-2-tert-butylaminoethyl) pyridine, dihydrochloride]
Apoptosis (% Induction) (ACHN cells): 11.4 ± 1.9%
c-Raf-1 kinase activity, intact cells first treated (c-Raf-1): blocked
Anchorage Independent Growth (% Inhibition) (HCT-116 cells): 7.3 ± 3.1%
Anchorage Independent Growth (% Inhibition) (MDA-MB-231 cells [1]): 82.7 ± 7.9%
growth of tumors (MDA-MB-231 cells [2]): caused tumor regression
Anchorage Dependent Growth (% Inhibition) (SF-539 cells): 55 ± 6.9%
Mek-1 kinase activity, intact cells first treated (Mek-1): blocked
Anchorage Independent Growth (% Inhibition) (SNB-19 cells): 5.1 ± 5.0%
